{"source": "paper PMC5519928", "about": "“Log D versus HPLC derived hydrophobicity: The development of predictive tools to aid in the rational design of bioactive peptoids” (Biopolymers, 2017)", "key": {"[1]": {"test": "Average hydrophobicity by analytical reverse-phase HPLC retention", "format": "physicochemical", "protocol": "To examine the average hydrophobicity of the peptoids, the retention time for from reverse‐phase HPLC was determined on a C18 column using acetonitrile and water, with 0.1% TFA (see Figure 3A). To find log D values, partitioning experiments were carried out, as illustrated by Figure 2. A peptoid solution (between 10 and 100 µM) in PBS was added to an equal volume of octanol and the system allowed to equilibrate under gentle agitation for ∼150 h (as 48 h was not found to be sufficient for the system to reach equilibrium). At this point it is assumed that the peptoid has partitioned between these two phases, such as to minimise its free energy.\nPreparative RP‐HPLC was performed with a semi‐preparative Perkin Elmer Series 200 lc pump fitted with a 785A UV/Vis detector using a SB‐Analytical ODH‐S optimal column (250 mm × 10 mm, 5 µm); flow rate 2 mL min^−1; λ = 250 nm, typical linear gradient elution 0–50% of solvent B over 60 min (A = 0.1% TFA in 95% H2O and 5% MeCN, B = 0.1% TFA in 5% H2O and 95% MeCN). Analytical RP‐HPLC was performed with a Perkin Elmer Series 200 LC pump fitted with a Series 200 UV/Vis detector using a SB‐Analytical ODH‐S optimal column (100 mm × 1.6 mm, 3.5 µm); flow rate 1 mL min^−1; λ = 220 nm, linear gradient elution 0–100% of solvent B over 30 min (A = 0.05% TFA, 95% H2O, 5% MeCN, B = 0.03% TFA, 5% H2O, 95% MeCN).\nPreparative RP-HPLC was performed with a semi-preparative Perkin Elmer Series 200 lc pump fitted with a 785A UV/Vis detector using a SB-Analytical ODH-S optimal column (250 × 10 mm, 5 µm); flow rate 2 ml min^−1; λ = 250 nm, typical linear gradient elution 0-50% of solvent B over 60 min (A = 0.1% TFA in 95% H2O and 5% MeCN, B = 0.1% TFA in 5% H2O and 95% MeCN). Analytical RP-HPLC was performed with a Perkin Elmer Series 200 LC pump fitted with a Series 200 UV/Vis detector using a SB-Analytical ODH-S optimal column (100 × 1.6 mm, 3.5 µm); flow rate 1 ml min^−1; λ = 220 nm, linear gradient elution 0-100% of solvent B over 30 min (A = 0.05% TFA, 95% H2O, 5% MeCN, B = 0.03% TFA, 5% H2O, 95% MeCN).\nTable S3. Data from analytical RP-HPLC for representative compounds of this peptoid library. Analytical HPLC gradient: 0 – 100% solvent B over 30 min at 220 nm (where solvent A = 95% H2O, 5% MeCN, 0.05 % TFA; solvent B = 95% MeCN, 5% H2O, 0.03% TFA)."}, "[2]": {"tested_on": "L. mexicana promastigotes", "test": "Cytotoxicity assay with Leishmania mexicana M379 promastigotes (alamarBlue)", "format": "cell-based", "settings": "1 h pre-incubation with compound, then 24 h incubation, alamarBlue 4 h, fluorescence Ex 560/Em 600 nm, triplicate, minimum of two separate occasions, ED50 = median effective dose", "protocol": "Leishmania mexicana (M379) promastigote parasites were maintained at 26 °C in Schneider's Insect medium (Sigma-Aldrich) supplemented with heat-inactivated foetal bovine sera (FBS, 15%; Biosera Ltd). Cells were counted using a Neubauer Improved Haemocytometer. Promastigotes were transformed into axenic amastigotes by a pH and temperature shift as previously described.5 A culture of recently transformed (three days) promastigotes in the late log phase was transferred into Schneider's Insect medium supplemented with 20% heat-inactivated FBS (pH 5.5) at 5 x 10^5 parasites/mL. […] After additional 5–7 days, the parasites should be in the amastigote stage and be ready for cytotoxicity studies and infections.\nCytotoxicity analyses were performed in 96-well plates (Costar, Fisher Scientific) using alamarBlue (Invitrogen) for cell viability detection as previously described.6 Promastigote and amastigote L. mexicana were pre-incubated with the compounds in triplicate (5 mM stock solutions in DMSO; Amphotericin B was used as a positive control; untreated parasites with DMSO as a negative control) in 50 µL of the corresponding media at 4 x 106 mL-1 for 1 hour. […] Then, 10 µL alamarBlue solution (Invitrogen) was added to each well for an incubation of 4 hours prior to assessing cell viability using a fluorescent plate reader (Biotek; Ex 560 nm / Em 600 nm). […]"}, "S. aureus": {"tested_on": "S. aureus", "format": "cell-based", "settings": "Iso-sensitest broth, 96-well, 2-100 µM 1:2 serial dilutions, 38 °C 16 h with shaking, absorbance; lowest concentration completely inhibiting growth; triplicate, minimum of two occasions", "protocol": "(§1) Bacterial cultures were prepared by streaking the bacterial strain from a 4°C- or frozen stock culture to single colonies onto agar plates (containing the appropriate antibiotic for strains carrying antibiotic resistance plasmids) with an inoculation loop, followed by overnight incubation at 37 °C.\n(§2) Primary overnight (o/n) cultures were prepared by inoculating a single colony from a streak plate into 5 mL of LB broth in a screw-capped culture tube, that was placed on a tube rotator at 37 °C (or 30 °C for sensitive strains) for overnight incubation. Before the usage of stock cultures the strains genotype were checked. Primary stocks were stored at 4°C for up to 6 weeks and always replaced from fresh colonies.\n(§3) Fresh cultures used for experiments contained 0.1-0.5 mL o/n culture diluted into 8 mL of fresh medium in a standard test tube. Placed in a shaking water bath or on a tube rotator the bacteria were grown at the required temperature to the required cell density. Frozen stock cultures used for long term storage that can remain viable for 10 years were prepared by mixing 2.5 mL fresh o/n culture with 1.5 mL sterile 80% glycerol in a 5 mL sterile blood tube and stored at -20 °C.\n(§4) MIC values were attained according to the previously described protocol4 and were conducted in 96-well plates (Costar, Fisher Scientific). Using the pre-prepared cultures, an innoculum density of 0.07 at 650 nm was set by comparing the absorbance with 0.5 MacFarland standard (240 μM BaCl2 in 0.18 M H2SO4). The innoculum was then diluted down ten-fold with Iso-sensitest broth (Oxoid, ThermoScientific) before use. Peptoids were initially dissolved in DMSO (5 mM) and then diluted further with Iso-sensitest broth to achieve a concentration range of 4 – 200 µM using 1 : 2 serial dilutions. 50 μl of innoculum and 50 μL of peptoid solution were added to each test well (final concentration range of 2 – 100 µM). Positive control containing only innoculum and Iso-sensitest broth; negative control containing inoculum and serial dilutions of ampicillin (from 250 microgram/mL to 2 microgram per mL); DMSO control containing innoculum and serial dilutions of DMSO; and Iso-sensitest broth were used as a sterile control. […] Quantitative data was attained from absorbance values using a microplate reader."}, "E. coli": {"tested_on": "E. coli", "format": "cell-based", "settings": "Iso-sensitest broth, 96-well, 2-100 µM 1:2 serial dilutions, 38 °C 16 h with shaking, absorbance; lowest concentration completely inhibiting growth; triplicate, minimum of two occasions", "protocol": "as §1, §2, §3, §4"}}, "note": "Non-standard residues stand in square brackets, D forms with d. Residues, ends and D or L forms follow the SMILES beside them. Nspe = C[C@H](NCC(=O)O)c1ccccc1; Nlys = NCCCCNCC(=O)O"}
{"smiles": "C[C@@H](c1ccccc1)N(CC(N)=O)C(=O)CN(C(=O)CN(CCCCN)C(=O)CN(C(=O)CN(C(=O)CN(CCCCN)C(=O)CN(C(=O)CN(C(=O)CN(CCCCN)C(=O)CN(C(=O)CN(C(=O)CNCCCCN)[C@@H](C)c1ccccc1)[C@@H](C)c1ccccc1)[C@@H](C)c1ccccc1)[C@@H](C)c1ccccc1)[C@@H](C)c1ccccc1)[C@@H](C)c1ccccc1)[C@@H](C)c1ccccc1", "note": "[Peptoid 4] (H-[Nlys][Nspe][Nspe][Nlys][Nspe][Nspe][Nlys][Nspe][Nspe][Nlys][Nspe][Nspe]-NH2)", "values": [{"measurement": "RP-HPLC Retention (% MeCN)", "setting": "[1]; Supplement table 4 (chemical and physical data for peptoid library), % MeCN at elution in RP-HPLC", "value": 42, "unit": "% MeCN"}, {"measurement": "HPLC RT", "setting": "[1]; Table 2 / main text, chromatographic, RP-HPLC C18 retention time as measure of average hydrophobicity, gradient 0-100% solvent B over 30 min, 220 nm, 1 mL/min, A = 0.05% TFA, 95% H2O, 5% MeCN, B = 0.03% TFA, 5% H2O, 95% MeCN, around pH 2.2", "value": 14.9, "unit": "min"}, {"measurement": "ED50 L. mex prom.", "setting": "[2]", "value": 8, "unit": "µM"}, {"measurement": "MIC S. aureus", "setting": "S. aureus", "value": 2, "unit": "µM"}, {"measurement": "MIC E. coli", "setting": "E. coli", "value": 25, "unit": "µM"}]}
